Assay results: patent US20240254119A1 (THIRD HARMONIC BIO, INC., priority 2022, published 2024)

Test system: not listed separately
Experiment: Kinetic solubility assay
Format: physicochemical
Settings: kinetic solubility, 50 mM PB (pH 7.4), shaken 24 hours at RT
Procedure: 10 μL of 10 mM in DMSO of test article and control compounds was added into lower chambers of whatman miniuniprep vials, respectively. 490 μL of 50 mM PB (pH 7.4) was then added into lower chambers of the whatman miniuniprep vials, respectively. […] Miniuniprep vials were shaken for 24 hours at RT at the speed of 800 rpm, centrifuged 20 minutes (eg. 4000 rpm) and the filtrates were analyzed by UPLC-UV/HPLC-UV system to calculate the concentration with standard curve.
Filter Membrane: Miniuniprep (PTFE Filter Media with Polypropylene Housing) Cat. No. UN203NPUORG, GE Halthcare Whatman.

Row | Compound | Solubility (μM)
1 | COc1ccn2c(C(=O)Nc3cccc(-c4noc([C@H]5C[C@@H]5F)n4)c3F)cnc2c1 [I-53] | **** (a solubility less than or equal to 2 μM)
2 | Cc1ccc(-c2noc([C@H]3C[C@@H]3F)n2)cc1NC(=O)c1cnc2ccc(CS(C)(=O)=O)cn12 [I-12] | **** (a solubility less than or equal to 2 μM)
3 | COc1ccn2c(C(=O)Nc3cc(-c4noc(C5COC5)n4)ccc3Cl)cnc2c1 [I-47] | **** (a solubility less than or equal to 2 μM)
4 | Cc1ccc(-c2noc([C@H]3C[C@@H]3F)n2)cc1NC(=O)c1cnc2cc(C(C)(F)F)ccn12 [I-44] | **** (a solubility less than or equal to 2 μM)
5 | O=C(Nc1cc(-c2noc(CC(O)C(F)F)n2)ccc1Cl)c1cnc2ccccn12 (single isomer, unassigned) [I-61] | **** (a solubility less than or equal to 2 μM)
6 | Cc1ccc(-c2noc([C@H]3CC4(CC4)CN3)n2)cc1NC(=O)c1cnc2ccccn12 [I-231] | ** (a solubility greater than 10 μM and less than or equal to 50 μM)
7 | Cc1ccc(-c2noc(C3COC3)n2)cc1NC(=O)c1cnc2cc(C(F)F)ccn12 [I-52] | **** (a solubility less than or equal to 2 μM)
8 | Cc1ccc(-c2noc(CC(O)C(F)(F)F)n2)cc1NC(=O)c1cnc2ccccn12 (single isomer, unassigned) [I-68] | **** (a solubility less than or equal to 2 μM)
9 | Cc1ccc(-c2noc(C3COC3)n2)cc1NC(=O)c1cnc2cc(COCCO)ccn12 [I-50] | *** (a solubility greater than 2 μM and less than or equal to 10 μM)
10 | Cc1ccc(-c2noc(C3COC3)n2)cc1NC(=O)c1cnn2cc(C(F)F)ccc12 [I-20] | **** (a solubility less than or equal to 2 μM)
11 | Cc1ccc(-c2noc([C@H]3C[C@@H]3F)n2)cc1NC(=O)c1cnc2cc(CNC(=O)CO)ccn12 [I-7] | **** (a solubility less than or equal to 2 μM)
12 | Cc1ccc(-c2noc([C@H]3C[C@@H]3F)n2)cc1NC(=O)c1cnc2ccc(S(C)(=O)=O)cn12 [I-18] | **** (a solubility less than or equal to 2 μM)
13 | COc1cc2ncc(C(=O)Nc3cc(-c4noc([C@H]5C[C@@H]5F)n4)ccc3C)n2cc1C(F)F [I-29] | **** (a solubility less than or equal to 2 μM)
14 | COc1ccn2c(C(=O)Nc3cc(-c4noc([C@H]5C[C@@H]5F)n4)ccc3C)cnc2c1F [I-34] | **** (a solubility less than or equal to 2 μM)
15 | Cc1ccc(-c2noc(C3COC3)n2)cc1NC(=O)c1cnc2cc(C(C)(F)F)ccn12 [I-43] | **** (a solubility less than or equal to 2 μM)
16 | COc1ccc2ncc(C(=O)Nc3cc(-c4noc(CC(O)C(F)F)n4)ccc3C)n2c1 (single isomer, unassigned) [I-66] | **** (a solubility less than or equal to 2 μM)
17 | Cc1ccc(-c2noc([C@H]3C[C@@H]3F)n2)cc1NC(=O)c1cnc2cc(CC#N)ccn12 [I-16] | **** (a solubility less than or equal to 2 μM)
18 | O=C(Nc1cc(-c2noc(C3COC3)n2)ccc1Cl)c1cnc2cc(C(F)F)ccn12 [I-38] | **** (a solubility less than or equal to 2 μM)
19 | CC(=O)NCc1ccn2c(C(=O)Nc3cc(-c4noc([C@H]5C[C@@H]5F)n4)ccc3C)cnc2c1 [I-32] | **** (a solubility less than or equal to 2 μM)
20 | Cc1ccc(-c2noc([C@H]3C[C@@H]3F)n2)cc1NC(=O)c1cnc2cc3c(cn12)COC3 [I-28] | **** (a solubility less than or equal to 2 μM)
21 | Cc1ccc(-c2noc(C3COC3)n2)cc1NC(=O)c1cnc2cc(CF)ccn12 [I-48] | **** (a solubility less than or equal to 2 μM)
22 | COc1cc2ncc(C(=O)Nc3cc(-c4noc([C@H]5C[C@@H]5F)n4)ccc3C)n2cc1C [I-42] | **** (a solubility less than or equal to 2 μM)
23 | COc1cc2ncc(C(=O)Nc3cc(-c4noc([C@H]5C[C@@H]5F)n4)ccc3C)n2cc1C(F)(F)F [I-41] | **** (a solubility less than or equal to 2 μM)
24 | O=C(Nc1cc(-c2noc(C3CC3F)n2)ccc1Cl)c1cnc2cc(COCCO)ccn12 (stereo not drawn) [I-56] | **** (a solubility less than or equal to 2 μM)
25 | Cc1ccc(-c2noc(C3CC3(F)F)n2)cc1NC(=O)c1cnc2cc(COCCO)ccn12 (stereo not drawn) [I-58] | ** (a solubility greater than 10 μM and less than or equal to 50 μM)
26 | CC(=O)NCc1ccc2ncc(C(=O)Nc3cc(-c4noc([C@H]5C[C@@H]5F)n4)ccc3C)n2c1 [I-9] | **** (a solubility less than or equal to 2 μM)
27 | Cc1ccc(-c2noc(CC(O)C(F)F)n2)cc1NC(=O)c1cnc2cc(OC(F)(F)F)ccn12 (single isomer, unassigned) [I-13] | **** (a solubility less than or equal to 2 μM)

Molecular target: T1, wtKIT (Homo sapiens, UniProt P10721)
T1 construct: 1888289AM in the reaction mixtures
T1 sequence (P10721 26-976): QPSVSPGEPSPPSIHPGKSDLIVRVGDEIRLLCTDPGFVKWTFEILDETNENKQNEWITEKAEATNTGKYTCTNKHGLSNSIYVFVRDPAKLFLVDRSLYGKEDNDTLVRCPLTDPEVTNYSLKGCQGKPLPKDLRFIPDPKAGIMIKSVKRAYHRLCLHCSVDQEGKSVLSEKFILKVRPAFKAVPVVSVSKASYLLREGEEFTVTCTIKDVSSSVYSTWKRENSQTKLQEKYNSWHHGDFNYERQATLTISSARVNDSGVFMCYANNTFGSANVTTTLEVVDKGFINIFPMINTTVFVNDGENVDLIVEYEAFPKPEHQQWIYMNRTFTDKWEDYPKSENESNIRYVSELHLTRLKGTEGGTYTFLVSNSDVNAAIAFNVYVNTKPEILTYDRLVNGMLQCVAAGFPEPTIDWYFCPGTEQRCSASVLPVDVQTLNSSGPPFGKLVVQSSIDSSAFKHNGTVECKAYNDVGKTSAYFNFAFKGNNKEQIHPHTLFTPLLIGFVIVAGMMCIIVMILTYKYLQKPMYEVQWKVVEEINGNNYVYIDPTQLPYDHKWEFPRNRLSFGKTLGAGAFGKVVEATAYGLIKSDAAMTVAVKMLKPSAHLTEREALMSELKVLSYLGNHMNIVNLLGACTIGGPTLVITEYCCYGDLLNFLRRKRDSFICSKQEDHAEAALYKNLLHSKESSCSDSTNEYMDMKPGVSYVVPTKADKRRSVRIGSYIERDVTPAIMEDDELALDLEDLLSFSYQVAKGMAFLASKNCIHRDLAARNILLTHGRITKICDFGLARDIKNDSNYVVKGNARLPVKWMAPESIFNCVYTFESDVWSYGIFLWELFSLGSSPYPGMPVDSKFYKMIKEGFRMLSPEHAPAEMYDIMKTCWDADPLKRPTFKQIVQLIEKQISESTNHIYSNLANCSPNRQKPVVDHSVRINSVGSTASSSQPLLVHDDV
Experiment: HTRF biochemical assay, wtKIT (phosphorylation of a peptide substrate)
Settings: Table 4
In short: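 HTRF read-out of FAM-peptide (1 µM) phosphorylation after anti-phosphotyrosine antibody addition and EDTA quench. Reaction: 5.0 nM wtKIT, 400 µM ATP, 10 mM Mn2+, HEPES pH 7.5, 1% DMSO, 3 h, 25 °C; optional enzyme-compound preincubation; enzyme level set for 10-20% conversion.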

Row | Compound | IC50
28 | Cc1ccc(-c2noc(N3CC(F)(F)C3)n2)cc1NC(=O)c1cnc2cc(OCCCN3CCCC3)ccn12 [Compound I-631, N-(5-(5-(3,3-difluoroazetidin-1-yl)-1,2,4-oxadiazol-3-yl)-2-methylphenyl)-7-(3-(pyrrolidin-1-yl)propoxy)imidazo[1,2-a]pyridine-3-carboxamide] | ≤ 50 nM
29 | Cc1ccc(-c2noc(CC(O)C(F)F)n2)cc1NC(=O)c1cnc2ccccn12 (stereo not drawn) [Compound I-476] | ≤ 50 nM
30 | COCC(O)c1nc(-c2ccc(C)c(NC(=O)c3cnc4cc(C)ccn34)c2)no1 (stereo not drawn) [Compound I-608] | 50 to 500 nM
31 | Cc1ccc(-c2noc(C3CC(NC(=O)OC(C)(C)C)C3)n2)cc1NC(=O)c1cnc2cc(Cl)ccn12 (stereo not drawn) [Compound I-747] | 50 to 500 nM
32 | Cc1ccc(-c2noc([C@H]3C[C@@H]3F)n2)cc1NC(=O)c1cnc2cc(COCC(C)O)ccn12 (single isomer, unassigned) [Compound I-469, N-[5-[5-[(1R,2S)-2-fluorocyclopropyl]-1,2,4-oxadiazol-3-yl]-2-methyl-phenyl]-7-[[(2S*)-2-hydroxypropoxy]methyl]imidazo[1,2-a]pyridine-3-carboxamide] | ≤ 50 nM
33 | Cc1ccc(-c2noc(C[C@H](O)C(F)F)n2)cc1NC(=O)c1cnc2cc(COCc3ccn[nH]3)ccn12 [Compound I-586, (S)-7-(((1H-pyrazol-5-yl)methoxy)methyl)-N-(5-(5-(3,3-difluoro-2-hydroxypropyl)-1,2,4-oxadiazol-3-yl)-2-methylphenyl)imidazo[1,2-a]pyridine-3-carboxamide] | ≤ 50 nM
34 | COc1ccn2c(C(=O)Nc3cc(-c4noc(CC5CCCO5)n4)ccc3C)cnc2c1 (stereo not drawn) [Compound I-582, 7-methoxy-N-(2-methyl-5-(5-((tetrahydrofuran-2-yl)methyl)-1,2,4-oxadiazol-3-yl)phenyl)imidazo[1,2-a]pyridine-3-carboxamide] | ≤ 50 nM
35 | COc1ccn2c(C(=O)Nc3cc(-c4noc(-c5cccnc5)n4)ccc3C)cnc2c1 [Compound I-745] | ≤ 50 nM
36 | Cc1ccc(-c2noc(C[C@H](O)C(F)F)n2)cc1NC(=O)c1cnc2cc(OCCCC(C)(C)O)ccn12 [Compound I-580, (S)—N-(5-(5-(3,3-difluoro-2-hydroxypropyl)-1,2,4-oxadiazol-3-yl)-2-methylphenyl)-7-((4-hydroxy-4-methylpentyl)oxy)imidazo[1,2-a]pyridine-3-carboxamide] | ≤ 50 nM
37 | Cc1ccc(-c2noc(CC(O)C(C)C)n2)cc1NC(=O)c1cnc2ccccn12 (stereo not drawn) [Compound I-525, N-(5-(5-(2-hydroxy-3-methylbutyl)-1,2,4-oxadiazol-3-yl)-2-methylphenyl)imidazo[1,2-a]pyridine-3-carboxamide] | ≤ 50 nM
38 | Cc1ccc(-c2noc([C@H]3C[C@@H]3F)n2)cc1NC(=O)c1cnc2ccc(-c3cscn3)cn12 [Compound I-541, N-(5-(5-((1R,2S)-2-fluorocyclopropyl)-1,2,4-oxadiazol-3-yl)-2-methylphenyl)-6-(thiazol-4-yl)imidazo[1,2-a]pyridine-3-carboxamide] | ≤ 50 nM
39 | Cc1nc(-c2ccc(C)c(NC(=O)c3cnc4ccc(-c5cscn5)cn34)c2)no1 [Compound I-542, N-(2-methyl-5-(5-methyl-1,2,4-oxadiazol-3-yl)phenyl)-6-(thiazol-4-yl)imidazo[1,2-a]pyridine-3-carboxamide] | ≤ 50 nM
40 | Cc1ccc(-c2noc(C[C@H](O)C(F)F)n2)cc1NC(=O)c1cnc2cc(O)ccn12 [Compound I-574, (S)—N-(5-(5-(3,3-difluoro-2-hydroxypropyl)-1,2,4-oxadiazol-3-yl)-2-methylphenyl)-7-hydroxyimidazo[1,2-a]pyridine-3-carboxamide] | ≤ 50 nM
41 | CCc1nc(-c2ccc(C)c(NC(=O)c3cnc4cc(-c5cscn5)ccn34)c2)no1 [Compound I-720] | ≤ 50 nM
42 | Cc1ccc(-c2noc([C@H]3C[C@@H]3F)n2)cc1NC(=O)c1cnc2cc(COCC(=O)O)ccn12 [Compound I-477, 2-((3-((5-(5-((1R,2S)-2-fluorocyclopropyl)-1,2,4-oxadiazol-3-yl)-2-methylphenyl)carbamoyl)imidazo[1,2-a]pyridin-7-yl)methoxy)acetic acid] | ≤ 50 nM
43 | Cc1ccc(-c2noc([C@H]3C[C@@H]3F)n2)cc1NC(=O)c1cnn2ccc(C(F)F)cc12 [Compound I-494, 5-(difluoromethyl)-N-(5-(5-((1R,2S)-2-fluorocyclopropyl)-1,2,4-oxadiazol-3-yl)-2-methylphenyl)pyrazolo[1,5-a]pyridine-3-carboxamide] | ≤ 50 nM
44 | Cc1ccc(-c2noc(C3CC(O)(C(F)F)C3)n2)cc1NC(=O)c1cnc2ccccn12 (stereo not drawn) [Compound I-538] | 50 to 500 nM
45 | Cc1ccc(-c2ncon2)cc1NC(=O)c1cnn2cc(-c3ccn(C)n3)ccc12 [Compound I-729] | ≤ 50 nM
